Here are results for 21 compounds from patent US11103493B2, “Substituted pyridinyl compounds as indoleamine 2,3-dioxygenase (IDO) inhibitors” (Merck Sharp & Dohme Corp., priority 2017, dated 2021).

Test [1] has as its target T1, IDO1 (Homo sapiens, UniProt P14902). Nature of the test: IDO1 Human Whole Blood Assay. In kind it is cell-based. Conditions: LPS and IFNγ 100 ng/mL, 18 h, kynurenine by LC/MS/MS. As to the method:
IDO1 Human Whole Blood Assay
Compounds to be tested were serially diluted in ten 3-fold steps in DMSO starting from 10 mM. 3 μL of compound dilutions or DMSO alone were then dispensed from the dilution plate into a polypropylene 96-well assay plate containing 97 μL of RPMI medium using an Echo 555 acoustic liquid handler (Labcyte). LPS and IFNγ was prepared in RPMI medium to a 10× of final conc. (1000 ng/mL), final concentration is 100 ng/mL.
Human whole blood was drawn in sodium heparin coated tubes from healthy internal donors. 240 μL of blood was transferred to each of the wells of a v-bottom 96 well plate. 30 μL of compound was transferred from intermediate dilution plate, and incubated for 15 min. 30 μL from stimulants was then transferred to blood and mixed thoroughly. Plate was covered with breathable membrane and incubated at 37° C. for overnight (18 h).
On day 2, isotope labeled standard solutions of kunurenine and tryptophan was made in water at 10× concentration and 30 μL was added to the blood at […] concentration. The assay plates were centrifuged at 300×G for 10 min with no brake to separate plasma from red blood cells. 60 μL of plasma samples was removed without disturbing red blood cells. Plasma was diluted with RPMI in 1:1 ratio and proteins were precipitated out with two volumes of Acetonitrile. The plates were centrifuged at 4000×G for 60 min. 20 μL of supernatant was carefully transferred to a 384 well plate containing 40 μL of 0.1% formic acid in water and analyzed by LC/MS/MS.
LC/MS/MS analyses were performed using Thermo Fisher's LX4-TSQ Quantum Ultra system. This system consists of four Agilent binary high-performance liquid chromatography (HPLC) pumps and a TSQ Quantum Ultra triple quadrupole MS/MS instrument. For each sample, 5 μL were injected onto an Atlantis T3 column (2.1 mm×150 mm, 3 μm particle size) from Waters. The mobile phase gradient pumped at 0.8 mL/min was used to elute the analytes from the column at 25° C. The elution started at 0% B increasing linearly to 25% B at 6.5 min, holding at 25% for 1 min, re-equilibrating to 10 min. Mobile phase A consisted of 0.1% formic acid in water. Mobile phase B consisted of 0.1% of formic acid in acetonitrile. Data was acquired in positive mode using a HESI interface. The operational parameters for the TSQ Quantum Ultra instrument were a spray voltage of 4000 V, capillary temperature of 380° C., vaporizer temperature 400° C., shealth gas 60 arbitrary units, Aux gas 20 arbitrary units, tube lens 85 and collision gas 1.2 mTorr. SRM chromatograms of kynurenine (QI: 209.2>Q3:94.0) and internal standard (QI: 215.3>Q3:98.2) were collected for 90 sec. The peak area was integrated by Xcalibur Quan software. The ratios between the kynurenine generated in the reaction and 2D6-Kynurenine spiked-in internal standard were used to generate percentage inhibition and IC50 values. Compounds were titrated and IC50's were calculated by 4 parameter sigmoidal curve fitting formula.

In test [2] the target is T1, IDO1. Nature of the test: IDO1 Cellular Assay in HeLa Cells Stimulated with IFNγ. The test is classed as cell-based. Conditions: IFNγ 100 ng/mL, 300 uM L-tryptophan, about 48 hours incubation, fluorescence readout, read-out: IDO1 HeLa Cell Assay, IC50. Here is the method: IDO1 Cellular Assay in HeLa Cells Stimulated with IFNγ
HeLa cells were cultured in complete HeLa culture medium (90% EMEM, 10% heat-inactivated fetal bovine serum) and expanded to about 1×10^9 cells. The cells were then collected and frozen down at 1×10^7 cells/vial in 1 mL frozen medium (90% complete HeLa culture medium, 10% DMSO).
Compounds to be tested were serially diluted in ten 3-fold steps in DMSO starting from 10 mM DMSO stocks in Echo low volume plate(s).
Frozen HeLa cells were thawed and transferred into HeLa assay medium (99% complete HeLa culture medium, 1% Pen/Strep) with 20 mL medium/vial of cells. The cells were spun down at 250 g in a table top centrifuge for 5 min and suspended in same volume of HeLa assay medium. The cells were then counted and adjusted to a density of 2×10^5 cells/mL in HeLa assay medium. Sterile L-tryptophan were added to the cells with final concentration of 300 uM L-tryptophan. A small aliquot (2 mL/plate) of HeLa cells were set aside and were not treated with IFNγ, to serve as the Max-E control.
HeLa cells with and without IFNγ were dispensed to the respective wells of 384-well assay plates containing the compounds. The plates were incubated for about 48 hours at a 37° C., 5% CO2 incubator. Afterwards, 12 μL of 0.5 M methyl isonipecotate in dimethyl sulfoxide were added into each well and the plates were sealed and incubated at 37° C. without CO2 overnight. The plates were centrifuged for 1 min at 200×g. The resulting fluorescence was measured in a Spectramax plate reader (Molecular Devices) with a 400 nm excitation filter and a 510 nm emission filter.
Potencies were calculated by […] least squares fit to the four parameter logistic IC50 equation.

Structures are written as SMILES.

T1 sequence (P14902 whole entry): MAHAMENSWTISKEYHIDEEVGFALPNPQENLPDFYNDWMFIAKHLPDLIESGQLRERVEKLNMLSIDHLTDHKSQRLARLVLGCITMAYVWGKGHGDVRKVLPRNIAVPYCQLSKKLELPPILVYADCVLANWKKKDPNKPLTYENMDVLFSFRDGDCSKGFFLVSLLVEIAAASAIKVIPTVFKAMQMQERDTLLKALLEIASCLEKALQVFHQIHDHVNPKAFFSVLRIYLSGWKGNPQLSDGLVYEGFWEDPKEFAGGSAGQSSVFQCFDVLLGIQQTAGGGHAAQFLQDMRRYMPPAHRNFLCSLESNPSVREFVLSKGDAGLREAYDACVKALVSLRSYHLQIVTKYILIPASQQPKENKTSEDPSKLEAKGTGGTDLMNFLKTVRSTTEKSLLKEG

For `N#Cc1cccc(C(=O)Nc2ccc(C3(c4nc5cc(C#N)ccc5[nH]4)CCC3)cn2)c1` [Ex. 5, 3-Cyano-N-(5-(1-(5-cyano-1H-benzo[d]imidazol-2-yl)cyclobutyl)pyridin-2-yl)benzamide], the results for the IC50 against IDO1 [1] and on IDO1 [2] were 864 nM and 12.5 nM, respectively.
As for `O=C(Nc1ccc(C2(c3nc4ncc(C(F)(F)F)cc4[nH]3)CCC2)cn1)c1cccc(Cl)c1` [Ex. 7, 3-chloro-N-(5-{1-[6-(trifluoromethyl)-1H-imidazo[4,5-b]pyridin-2-yl]cyclobutyl}pyridin-2-yl)benzamide], the IC50 (usually the concentration that gives 50% inhibition) amounted to 273 nM against IDO1 [1] and 5.66 nM at IDO1 [2].
The corresponding values for `Cc1cc(C)c2[nH]c(C3(c4ccc(NC(=O)c5cccc(Cl)c5)nc4)CCC3)nc2c1` [Ex. 8, 3-chloro-N-{5-[1-(5,7-dimethyl-1H-benzimidazol-2-yl)cyclobutyl]pyridin-2-yl}benzamide] are 493 nM and 4.69 nM.
The corresponding values for `Cc1cc(Cl)cc2nc(C3(c4ccc(NC(=O)c5cccc(Cl)c5)nc4)CCC3)[nH]c12` [Ex. 9, 3-chloro-N-{5-[1-(5-chloro-7-methyl-1H-benzimidazol-2-yl)cyclobutyl]pyridin-2-yl}benzamide] are 504 nM and 5.1 nM.
Taken in the same sequence, the figures for `Cc1ccc2nc(C3(c4ccc(NC(=O)c5cccc(Cl)c5)nc4)CCC3)[nH]c2c1C` [Ex. 10, 3-chloro-N-{5-[1-(6,7-dimethyl-1H-benzimidazol-2-yl)cyclobutyl]pyridin-2-yl}benzamide] were 501 nM and 5.23 nM.
As for `Cc1ccc2nc(C3(c4ccc(NC(=O)c5cccc(Cl)c5)nc4)CCC3)[nH]c2c1` [Ex. 13, 3-chloro-N-{5-[1-(6-methyl-1H-benzimidazol-2-yl)cyclobutyl]pyridin-2-yl}benzamide], the IC50 on IDO1 [1] was 125 nM; on IDO1 [2] it was 2.79 nM.
Taken in the same sequence, the figures for `O=C(Nc1ccc(C2(c3nc4cc(F)c(F)cc4[nH]3)CCC2)cn1)c1cccc(Cl)c1` [Ex. 16, 3-chloro-N-{5-[1-(5,6-difluoro-1H-benzimidazol-2-yl)cyclobutyl]pyridin-2-yl}benzamide] were 889 nM and 7.77 nM.
Consider `O=C(Nc1ccc(C2(c3nc4cc(F)cc(F)c4[nH]3)CCC2)cn1)c1cccc(Cl)c1` [Ex. 17, 3-chloro-N-{5-[1-(5,7-difluoro-1H-benzimidazol-2-yl)cyclobutyl]pyridin-2-yl}benzamide], for which the IC50 on IDO1 [1] is 829 nM; at IDO1 [2] it was 4.9 nM.
In the case of `O=C(Nc1ccc(C2(c3nc4ccc(C(F)(F)F)cc4[nH]3)CCC2)cn1)c1cccc(Cl)c1` [Ex. 19, 3-chloro-N-(5-{1-[6-(trifluoromethyl)-1H-benzimidazol-2-yl]cyclobutyl}pyridin-2-yl)benzamide], the figures for the IC50 on IDO1 [1] and on IDO1 [2] were 279 nM and 2.42 nM, respectively.
Taken in the same sequence, the figures for `O=C(Nc1ccc(C2(c3nc4ccc(Cl)cc4[nH]3)CCC2)cn1)c1cccc(Cl)c1` [Ex. 21, 3-chloro-N-{5-[1-(6-chloro-1H-benzimidazol-2-yl)cyclobutyl]pyridin-2-yl}benzamide] were 80.9 nM and 1.89 nM.
The corresponding values for `O=C(Nc1ccc(C2(c3nc4ccc(OC(F)F)cc4[nH]3)CCC2)cn1)c1cccc(Cl)c1` [Ex. 23, 3-chloro-N-(5-{1-[6-(difluoromethoxy)-1H-benzimidazol-2-yl]cyclobutyl}pyridin-2-yl)benzamide] are 1070 nM and 7.67 nM.
Taken in the same sequence, the figures for `O=C(Nc1ccc(C2(c3nc4cccc(CO)c4[nH]3)CCC2)cn1)c1cccc(Cl)c1` [Ex. 24, 3-chloro-N-(5-{1-[7-(hydroxymethyl)-1H-benzimidazol-2-yl]cyclobutyl}pyridin-2-yl)benzamide] were 826 nM and 6.65 nM.
Regarding `O=C(Nc1ccc(C2(c3nc4cccc(F)c4[nH]3)CCC2)cn1)c1cccc(Cl)c1` [Ex. 25, 3-chloro-N-{5-[1-(7-fluoro-1H-benzimidazol-2-yl)cyclobutyl]pyridin-2-yl}benzamide], the results for the IC50 against IDO1 [1] and on IDO1 [2] were 691 nM and 7.21 nM, respectively.
Taken in the same sequence, the figures for `Cc1cc2nc(C3(c4ccc(NC(=O)c5cccc(Cl)c5)nc4)CCC3)[nH]c2cc1F` [Ex. 27, 3-chloro-N-{5-[1-(6-fluoro-5-methyl-1H-benzimidazol-2-yl)cyclobutyl]pyridin-2-yl}benzamide] were 496 nM and 3.47 nM.
As for `N#Cc1cccc(C(=O)Nc2ccc(C3(c4nc5cc(C(F)(F)F)cnc5[nH]4)CCC3)cn2)c1` [Ex. 28, 3-cyano-N-(5-{1-[6-(trifluoromethyl)-3H-imidazo[4,5-b]pyridin-2-yl]cyclobutyl}pyridin-2-yl)benzamide], the IC50 on IDO1 [1] was 2290 nM; at IDO1 [2], 23.5 nM.
The corresponding values for `N#Cc1cccc(C(=O)Nc2ccc(C3(c4nc5cc(Cl)ccc5[nH]4)CCC3)cn2)c1` [Ex. 30, N-(5-[1-(5-chloro-1H-benzimidazol-2-yl)cyclobutyl]pyridin-2-yl}-3-cyanobenzamide] are 312 nM and 6.58 nM.
As to `O=C(Nc1ccc(C2(c3nc4cccc(CCCO)c4[nH]3)CCC2)cn1)c1cccc(Cl)c1` [Ex. 32, 3-Chloro-N-(5-(1-(7-(3-hydroxypropyl)-1H-benzo[d]imidazol-2-yl)cyclobutyl)pyridin-2-yl)benzamide], the IC50 was determined as 446 nM against IDO1 [1] and 5.4 nM on IDO1 [2].
On to `O=C(O)Cc1cccc2nc(C3(c4ccc(NC(=O)c5cccc(Cl)c5)nc4)CCC3)[nH]c12` [Ex. 33, 2-(2-(1-(6-(3-Chlorobenzamido)pyridin-3-yl)cyclobutyl)-1H-benzo[d]imidazol-7-yl)acetic acid], for which the IC50 amounted to 1600 nM against IDO1 [1] and 20.7 nM on IDO1 [2].
Taken in the same sequence, the figures for `N#Cc1cccc(C(=O)Nc2ccc(C3(c4nc5cccc(CCO)c5[nH]4)CCC3)cn2)c1` [Ex. 34, 3-Cyano-N-(5-(1-(7-(2-hydroxyethyl)-1H-benzo[d]imidazol-2-yl)cyclobutyl)pyridin-2-yl)benzamide] were 3290 nM and 24.8 nM.
Taken in the same sequence, the figures for `N#Cc1cccc(C(=O)Nc2ccc(C3(c4nc5cccc(C(=O)N6CCC(O)CC6)c5[nH]4)CCC3)cn2)c1` [Ex. 37, 3-Cyano-N-(5-(1-(7-(4-hydroxypiperidine-1-carbonyl)-1H-benzo[d]imidazol-2-yl)cyclobutyl)pyridin-2-yl)benzamide] were 58.2 nM and 5.38 nM.
Taken in the same sequence, the figures for `N#Cc1cccc(C(=O)Nc2ccc(C3(c4nc5cccc(C(=O)N6CCCC6)c5[nH]4)CCC3)cn2)c1` [Ex. 38, 3-cyano-N-(5-{1-[7-(pyrrolidine-1-carbonyl)-1H-benzimidazol-2-yl]cyclobutyl}pyridin-2-yl)benzamide] were 220 nM and 2.18 nM.
